The source of these data is patent US20260209242A1, “CAMPTOTHECIN DERIVATIVE, PHARMACEUTICAL COMPOSITION, AND PREPARATION METHOD AND USE THEREFOR” (priority 2022, published 2026).

The structures appear in SMILES notation. Values after ≈ are worked out from the molar mass of the structure shown. Like-named read-outs stand apart in the source and are kept apart here.

In one data set the target is T1, CYP3A4 (Homo sapiens, UniProt P08684).
T1 construct: from tissue; host or cells: human liver microsomes
T1 sequence (P08684 whole entry): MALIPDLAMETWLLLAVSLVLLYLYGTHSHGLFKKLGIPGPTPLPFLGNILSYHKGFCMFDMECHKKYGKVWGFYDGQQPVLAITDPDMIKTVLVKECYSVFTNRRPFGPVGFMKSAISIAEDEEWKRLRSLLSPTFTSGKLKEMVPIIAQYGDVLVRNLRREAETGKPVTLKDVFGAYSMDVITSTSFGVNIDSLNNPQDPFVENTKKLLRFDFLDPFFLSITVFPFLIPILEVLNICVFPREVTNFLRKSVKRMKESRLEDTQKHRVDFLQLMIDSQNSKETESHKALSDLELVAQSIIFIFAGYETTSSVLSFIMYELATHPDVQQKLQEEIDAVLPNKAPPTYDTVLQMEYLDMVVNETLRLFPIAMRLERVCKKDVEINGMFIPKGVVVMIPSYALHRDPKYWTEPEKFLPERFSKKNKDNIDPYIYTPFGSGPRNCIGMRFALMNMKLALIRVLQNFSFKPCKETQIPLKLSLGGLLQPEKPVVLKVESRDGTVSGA
Kind of data set: Inhibition on human hepatomicrosomes CYP3A4. The class given is in vitro ADME.

The target of the next data set is CYP2D6 (Homo sapiens, UniProt P10635). Kind of data set: Inhibition on human hepatomicrosomes CYP2D6.
Chain of CYP2D6 (P10635 whole entry): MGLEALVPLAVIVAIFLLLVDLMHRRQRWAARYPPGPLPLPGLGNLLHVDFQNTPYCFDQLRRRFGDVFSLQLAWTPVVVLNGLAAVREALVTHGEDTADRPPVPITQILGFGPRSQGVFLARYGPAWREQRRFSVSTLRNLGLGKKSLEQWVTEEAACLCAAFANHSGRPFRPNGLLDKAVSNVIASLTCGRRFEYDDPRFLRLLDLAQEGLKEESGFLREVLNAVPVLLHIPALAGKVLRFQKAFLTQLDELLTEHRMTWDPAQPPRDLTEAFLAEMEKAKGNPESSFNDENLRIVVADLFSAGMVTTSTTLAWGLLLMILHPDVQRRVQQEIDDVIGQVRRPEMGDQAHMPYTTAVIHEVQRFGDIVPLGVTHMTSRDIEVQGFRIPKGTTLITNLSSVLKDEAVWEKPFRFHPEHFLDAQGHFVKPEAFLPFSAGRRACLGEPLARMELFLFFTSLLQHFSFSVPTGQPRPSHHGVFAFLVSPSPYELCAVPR
The nature of data set [1]: Kinetic solubility test in PBS 7.4. The following applies: for solubility at 2 h: 25 °C, pH 7.4, aqueous buffer, kinetic from dmso stock. The class given is physicochemical. How it is done: 10 mM stock solutions of the test substances 6-2, 11-2, 17-2, Dxd, and the control drugs progesterone and diclofenac were prepared using DMSO respectively.
15 μL of 10 mM stock solution of each of the test substances was added to a corresponding position of a corresponding 96-well plate in a specified sequence. 485 μL of the PBS 7.4 was added to a corresponding vial on a sample plate. The experiment was run in duplicate. Each vial was additionally provided with a stirring rod and was plugged. Then, the sample plate was transferred in a thermostatic mixer, and oscillated at a revolving speed of 1,100 rpm at 25° C. for 2 h. 2 h later, the plug was removed, the stirring rod was attracted away with a large magnet, and then the sample was transferred from the sample plate to the filter plate. Negative pressure was generated using a vacuum pump to filter the sample. 5 μL of filtrate and 5 μL of blank DMSO were transferred to another sample plate, and then 490 μL of internal standard water (acetonitrile:water=1:1) containing the internal standard was added. Depending on peak shapes, a certain proportion of internal standard water may be used to dilute the sample diluent to obtain better peak shapes.
6 μL was transferred from the 10 mM DMSO stock solution plate to a blank plate, and was prepared into a 300 μM standard substance solution with addition of 194 μL of DMSO. 5 μL was transferred from the 300 μM standard substance solution plate to still another blank plate, and then 5 μL of blank buffer and 490 μL of the internal standard water containing the internal standard (acetonitrile:water=1:1) were added until a final concentration of the standard substance solution was 3 μM.
An injection plate was transferred on an injection tray of an autosampler to evaluate the sample by LC/MS analysis.
All calculations were performed using Microsoft Excel.
The sample filtrate was analyzed and quantified by qualitative and quantitative LC/MS of standard substance peaks at known concentrations. The calculation formula for the solubility values of the reference drugs and the test substances are as follows:
[Sample] is the compound concentration, DFSample refers to the sample dilution factor, [STD] is the standard substance concentration of the compound, AREAStd is the standard substance peak area of the compound, and AREASample is the peak area of the compound sample.

Data set [2] is described as follows: Stability of compounds in human plasma. To be noted: 5 μmol/L. The class given is in vitro ADME.
Data set [3] in a line: Pharmacokinetic test in SD rats. To be noted: male, Sprague-Dawley (SD), rat, in vivo, iv, 2 mg/kg. How it is done:
After a single intravenous injection (dose: 2 mpk) of the compounds 6-2, 11-2, 17-2, and Dxd into male SD rats (blood collection time points: 0.083 h, 0.25 h, 0.5 h, 1 h, 2 h, 4 h, 8 h, and 24 h after IV administration, totaling 8 blood collection time points), average pharmacokinetic parameters in the plasma are as shown in Table 5: […]

A short description of data set [4]: Stability of compounds in human plasma. The class given is in vitro ADME. To be noted: for Residual percentage (%) 1 h / Residual percentage (%) 2 h / Residual percentage (%) 6 h / Residual percentage (%) 24 h: 5 μmol/L. Here is the method: • (1) 199 μL of human plasma was added to the culture plate of each cell. The culture plate was preheated to 37° C., and kept at this temperature for 15 min. • (2) After preincubation, 1 μL of 1 mmol/L each test compound and 1 μL of 1 mmol/L control compound were added to 199 μL of plasma, so that a final concentration of each test compound was 5 μmol/L and that of the control compound was 5 gmol/L. The final concentration of the organic solvent was 0.5%. The experiment would be duplicated twice. • (3) Reaction samples were incubated at 37° C. • (4) The reaction was stopped by adding 600 μL of cold methanol containing the internal standard at 0, 1, 2, 6, and 24 h. Each sample was vortex mixed for 10 min, and then centrifuged at 3,220 g for 30 min to precipitate the protein. […] Based on the signal response and peak shapes of liquid chromatography-mass spectrometry (LC-MS), the supernatant would be diluted with ultrapure water.
All calculations were performed using Microsoft Excel. The peak area ratio was determined from the chromatogram of extracted ions. The percentage of compounds remaining at each time point was calculated as per the following formula: […]

A further data set has as its target T2, CYP1A2 (Homo sapiens, UniProt P05177).
T2 sequence (P05177 1-516): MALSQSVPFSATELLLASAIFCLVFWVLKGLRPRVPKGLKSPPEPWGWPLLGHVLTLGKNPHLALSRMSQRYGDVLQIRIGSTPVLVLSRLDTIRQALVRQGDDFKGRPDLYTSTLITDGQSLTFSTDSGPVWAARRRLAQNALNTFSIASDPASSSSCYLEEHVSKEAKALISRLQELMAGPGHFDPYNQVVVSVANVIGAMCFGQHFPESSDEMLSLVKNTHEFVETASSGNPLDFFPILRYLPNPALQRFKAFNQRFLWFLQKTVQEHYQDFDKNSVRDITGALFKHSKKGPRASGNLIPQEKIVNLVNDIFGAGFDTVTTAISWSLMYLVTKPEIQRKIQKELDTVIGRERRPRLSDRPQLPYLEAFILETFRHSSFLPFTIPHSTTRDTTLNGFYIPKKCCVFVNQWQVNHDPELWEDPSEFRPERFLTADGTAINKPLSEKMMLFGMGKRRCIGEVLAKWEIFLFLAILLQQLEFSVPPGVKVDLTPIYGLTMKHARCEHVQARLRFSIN
Put plainly: Inhibition on human hepatomicrosomes CYP1A2.

[5] abbreviates: read-out: 3A4M (IC50 μM), human hepatomicrosomes, substrate midazolam.

Turning to `CC[C@@]1(O)C(=O)OCc2c1cc1n(c2=O)Cc2c-1nc1cc(F)c(C)c3c1c2C(NC(=O)C[C@@H](C)O)CCC3` (single isomer, unassigned) [Compound 6-2], the IC50 (usually the concentration at which inhibition is half-maximal) against CYP3A4 was greater than 30 µM. Besides, at CYP3A4 (setting [5]), the 50% inhibitory concentration (IC50) is greater than 30 µM. Further, the IC50 against CYP2D6 is greater than 30 µM. In data set [1], the “solubility in the PBS 7.4 compared with Dxd (in words)” value was “significantly better solubility in the PBS 7.4 than Dxd” and the solubility (usually the dissolved amount per volume that the medium holds) at 2 h came to 170 µM (≈ 91 µg/mL). The “Residual percentage (%) 4 h” value in data set [2] came out at 93.65%. Also, in data set [3], the AUC(0-inf) (commonly total exposure, with the tail of the curve extrapolated) stood at 318 ng·h/mL; the AUC(0-t) – broadly, the area under the concentration-time curve up to a stated or last time point – stood at 314 ng·h/mL; the C0 was found to be 677 ng/mL; the Vd (in general, a proportionality between amount in the body and measured concentration, not a real space) amounted to 2.93 L/kg. Moreover, in data set [3], the clearance (commonly a measure of how efficiently the substance is removed, as volume per time) came to 108 mL/min/kg and the half-life (as a rule, how long it takes for the measured level to halve) is 0.39 h. For the same compound, in data set [4], the “Residual percentage (%) 1 h” value is 96.62%, the “Residual percentage (%) 2 h” value worked out at 86.16%, the “Residual percentage (%) 6 h” value is 88.99% and the “Residual percentage (%) 24 h” value was found to be 87.01%. The “stability in human plasma (in words)” value in data set [4] is “good stability in human plasma”. This compound showed an IC50 at CYP1A2 greater than 30 µM.

For the compound `CC[C@@]1(O)C(=O)OCc2c1cc1n(c2=O)Cc2c-1nc1cc(F)c(C3CC3)c3c1c2C(NC(=O)C[C@@H](C)O)CC3` (single isomer, unassigned) [Compound 17-2], on CYP3A4, the half-maximal inhibitory concentration (IC50) is greater than 30 µM. Moreover, the IC50 at CYP3A4 (setting [5]) is greater than 30 µM. At CYP2D6, this compound gave a 50% inhibitory concentration (IC50) greater than 30 µM. Moreover, the solubility at 2 h in data set [1] is 1.7 µM (≈ 0.931 µg/mL). Besides, the “Residual percentage (%) 4 h” value in data set [2] worked out at 93.75%. In data set [3], the area under the curve AUC(0-inf) turned out to be 2730 ng·h/mL, the AUC(0-t) stood at 2250 ng·h/mL, the C0 was 2690 ng/mL and the Vd is 1.4 L/kg. In addition, in data set [3], the clearance amounted to 12.3 mL/min/kg and the half-life was 1.64 h. For the same compound, in data set [4], the “Residual percentage (%) 1 h” value was found to be 90.07%, the “Residual percentage (%) 2 h” value is reported as 89.34%, the “Residual percentage (%) 6 h” value stood at 97.06% and the “Residual percentage (%) 24 h” value was 102.21%. Besides, the “stability in human plasma (in words)” value in data set [4] is given as “good stability in human plasma”. At CYP1A2, this compound came in with an IC50 greater than 30 µM.
